In patent US20190142971A1, “FORMULATION AND DELIVERY OF MODIFIED NUCLEOSIDE, NUCLEOTIDE, AND NUCLEIC ACID COMPOSITIONS” (ModernaTX, Inc., priority 2013, published 2019):

What was measured:
Sprague-Dawley rats = assay: Example 71: toxicity study of luciferase mRNA in rats: weight, electrolytes, hematology, WBC, serum chemistry, liver proteins (Tables 104-110); format: in vivo; details: for Mean weight Gain / Weight Gain: 7 days after administration; for ALP / ALT / AST / Albumin / Basophils (BASO %) / Bicarbonate / CPK / Calcium / Chloride / Eosinophils (EOS %) / Globulin / HCT / HGB / Lymphocytes (LYM %) / MCH / MCV / Monocytes (MON %) / Neutrophil (NEU-SEG %) / Phosphorus / Potassium / RBC / Sodium / Total Protein / WBC / MCHC: after 7 days
Method: A control group were administered the formulation buffer (F. Buffer). After 7 days the rats were sacrificed.
The rats were weighed before the administration of mRNA and 7 days after administration. […] Each group analyzed consumed about the same amount of food over the course of the study.
After 7 days the rats were sacrificed and samples were taken to determine electrolytes. The calcium, bicarbonate, potassium, phosphorus, chloride and sodium levels in each group were analyzed.
After 7 days the rats were sacrificed and samples were taken to determine hematology levels. The red blood cell (RBC), hematocrit (HGT), mean corpuscular volume (MCV), hemoglobin (HGB), mean corpuscular hemoglobin (MCH) and mean corpuscular hemoglobin concentration (MCHC) was determined for each group.
After 7 days the rats were sacrificed and samples were taken to determine white blood cell count. Neutrophils (percent segmented neutrophils), monocytes, basophils, lymphocytes, eosinophil and white blood cell (WBC) was determined for each group.
After 7 days the rats were sacrificed and samples were taken to determine serum chemistry. The alkaline phosphatase (ALP), aspartate transaminase (AST), alanine transaminase (ALT) and creatine phosphokinase (CPK) was determined for each group.
After 7 days the rats were sacrificed and samples were taken to determine liver protein levels. The level of albumin, globulin and total protein was determined for each group.
Doses as high as 30 times the effective dose appear to be safe from this analysis.

mice = assay: Example 39: Factor IX mmRNA IM in mice, serum Factor IX at 13 hours; format: in vivo; details: 2×100 ug/mouse IM
Method: Human Factor IX mmRNA (Gen1; fully modified 5-methycytosine and pseudouridine) formulated in formulation buffer was delivered to mice via intramuscular injection.
The mice were bled at 13 hours after the intramuscular injection to determine the concentration of human the polypeptide in serum in pg/mL.

[1] = test system: peripheral blood mononuclear cells (PBMC); assay: Example 56: PBMC IFN-alpha and TNF-alpha ELISA and protein/cytokine ratio (Tables 86, 87); format: cell-based, human
Method: 480 ng of G-CSF mRNA modified with 5-methylcytosine (5mC) and pseudouridine (pseudoU) or unmodified G-CSF mRNA was transfected with 0.4 uL of Lipofectamine 2000 into peripheral blood mononuclear cells (PBMC) from three normal blood donors (D1, D2, and D3). […] The supernatant was harvested and run by ELISA 22 hours after transfection to determine the protein expression. The expression of IFN-alpha and TNF-alpha may be a secondary effect from the transfection of the G-CSF mRNA.
As mentioned above, using PBMC as an in vitro assay system it is possible to establish a correlation between translation (in this case G-CSF protein production) and cytokine production (in this case exemplified by IFN-alpha protein production). Better protein production is correlated with lower induction of innate immune activation pathway, and the percentage modification of a chemistry can be judged favorably based on this ratio (Table 87).

## Luciferase: luciferase mRNA, SEQ ID NO: 14, Cap1, fully modified with 5-methylcytosine and pseudouridine
Sprague-Dawley rats; 100 ug
  Mean weight Gain: 16.875 g
  Weight Gain: 6.5%
  ALP: 144.4 IU/L
  ALT: 60.8 IU/L
  AST: 198.3 IU/L
  Albumin: 3.3 g/dL
  Basophils (BASO %): 0.4%
  Bicarbonate: 19.9 mEg/L
  CPK: 488.1 IU/L
  Calcium: 9.8 mg/dL
  Chloride: 101.0 mEg/L
  Eosinophils (EOS %): 1.3%
  Globulin: 2.5 g/dL
  HCT: 44.1%
  HGB: 14.7 g/dL
  Lymphocytes (LYM %): 85.9%
  MCH: 19.5 pg
  MCV: 58.7 fL
  Monocytes (MON %): 2.0%
  Neutrophil (NEU-SEG %): 10.6%
  Phosphorus: 8.3 mg/dL
  Potassium: 4.7 mEg/L
  RBC: 7.5 Million/uL
  Sodium: 139.6 mEg/L
  Total Protein: 5.8 g/dL
  WBC: 14 Thous./uL
Sprague-Dawley rats; 300 ug
  Mean weight Gain: 22.125 g
  Weight Gain: 8.3%
  ALP: 169.5 IU/L
  ALT: 49.3 IU/L
  AST: 200.3 IU/L
  Albumin: 3.2 g/dL
  Basophils (BASO %): 0.4%
  Bicarbonate: 23.3 mEg/L
  CPK: 968.3 IU/L
  Calcium: 9.8 mg/dL
  Chloride: 100.5 mEg/L
  Eosinophils (EOS %): 1.0%
  Globulin: 2.4 g/dL
  HCT: 43.5%
  HGB: 14.5 g/dL
  Lymphocytes (LYM %): 83.6%
  MCH: 19.8 pg
  MCHC: 33.3 g/dL
  MCV: 59.6 fL
  Monocytes (MON %): 2.8%
  Neutrophil (NEU-SEG %): 12.0%
  Phosphorus: 8.2 mg/dL
  Potassium: 4.4 mEg/L
  RBC: 7.3 Million/uL
  Sodium: 139.6 mEg/L
  Total Protein: 5.6 g/dL
  WBC: 10.2 Thous./uL
Sprague-Dawley rats; 1000 ug
  Mean weight Gain: 19 g
  Weight Gain: 6.95%
  ALP: 150.5 IU/L
  ALT: 51.5 IU/L
  AST: 189.8 IU/L
  Albumin: 3.2 g/dL
  Bicarbonate: 22.5 mEg/L
  CPK: 744 IU/L
  Calcium: 10.6 mg/dL
  Chloride: 101.0 mEg/L
  Eosinophils (EOS %): 1.5%
  Globulin: 2.7 g/dL
  HCT: 42.5%
  HGB: 14.2 g/dL
  Lymphocytes (LYM %): 83.0%
  MCH: 19.55 pg
  MCHC: 33.3 g/dL
  MCV: 58.8 fL
  Monocytes (MON %): 2.3%
  Neutrophil (NEU-SEG %): 12.8%
  Phosphorus: 9.1 mg/dL
  Potassium: 5.2 mEg/L
  RBC: 7.2 Million/uL
  Sodium: 138.8 mEg/L
  Total Protein: 5.9 g/dL
  WBC: 10.7 Thous./uL
Sprague-Dawley rats; 3 × 1000 ug
  Mean weight Gain: 20.375 g
  Weight Gain: 7.7%
  ALP: 152.0 IU/L
  ALT: 45.9 IU/L
  Albumin: 3.4 g/dL
  Basophils (BASO %): 0.1%
  Bicarbonate: 22.6 mEg/L
  CPK: 481.1 IU/L
  Calcium: 10.2 mg/dL
  Chloride: 100.4 mEg/L
  Eosinophils (EOS %): 0.9%
  Globulin: 2.6 g/dL
  HCT: 43.5%
  HGB: 14.4 g/dL
  Lymphocytes (LYM %): 85.5%
  MCH: 20.0 pg
  MCHC: 33.1 g/dL
  MCV: 60.6 fL
  Monocytes (MON %): 2.0%
  Neutrophil (NEU-SEG %): 11.6%
  Phosphorus: 8.11 mg/dL
  Potassium: 4.6 mEg/L
  RBC: 7.2 Million/uL
  Sodium: 138.8 mEg/L
  Total Protein: 6.0 g/dL
  WBC: 10.9 Thous./uL
Sprague-Dawley rats; 7 days
  adverse effects of high doses: do not result in adverse effects
  blood count and clotting factors: no change in blood count or blood clotting factors
  electrolytes: no change in electrolytes
  liver enzyme and liver protein production: no change seen in liver enzyme or liver protein production
  weight gain and behaviour: All animals continued to gain weight and behave normally
  white blood cells: no increase in white blood cells
Sprague-Dawley rats; rat, in vivo
  dose that appears to be safe: 30 times the effective dose
  histopathology at the site of injection: only minimal inflammation at the site of injection
mice
  Factor IX in serum: less than 100 pg/mL

B1: G-CSF: modified mRNA encoding human G-CSF, SEQ ID NO: 4, Cap1, fully modified with 5-methylcytosine and pseudouridine; LNP-formulated in Examples 16-22 (nucleic acid)
chain: GGGAAAUAAGAGAGAAAAGAAGAGUAAGAAGAAAUAUAAGAGCCACCAUGGCCGGUCCCGCGACCCAAAGCCCCAUGAAACUUAUGGCCCUGCAGUUGCUGCUUUGGCACUCGGCCCUCUGGACAGUCCAAGAAGCGACUCCUCUCGGACCUGCCUCAUCGUUGCCGCAGUCAUUCCUUUUGAAGUGUCUGGAGCAGGUGCGAAAGAUUCAGGGCGAUGGAGCCGCACUCCAAGAGAAGCUCUGCGCGACAUACAAACUUUGCCAUCCCGAGGAGCUCGUACUGCUCGGGCACAGCUUGGGGAUUCCCUGGGCUCCUCUCUCGUCCUGUCCGUCGCAGGCUUUGCAGUUGGCAGGGUGCCUUUCCCAGCUCCACUCCGGUUUGUUCUUGUAUCAGGGACUGCUGCAAGCCCUUGAGGGAAUCUCGCCAGAAUUGGGCCCGACGCUGGACACGUUGCAGCUCGACGUGGCGGAUUUCGCAACAACCAUCUGGCAGCAGAUGGAGGAACUGGGGAUGGCACCCGCGCUGCAGCCCACGCAGGGGGCAAUGCCGGCCUUUGCGUCCGCGUUUCAGCGCAGGGCGGGUGGAGUCCUCGUAGCGAGCCACCUUCAAUCAUUUUUGGAAGUCUCGUACCGGGUGCUGAGACAUCUUGCGCAGCCGUGAAGCGCUGCCUUCUGCGGGGCUUGCCUUCUGGCCAUGCCCUUCUUCUCUCCCUUGCACCUGUACCUCUUGGUCUUUGAAUAAAGCCUGAGUAGGAAG
modifications: Cap1, 5-methylcytosine, pseudouridine
[1]; IFN-alpha
  protein/cytokine ratio vs natural G-CSF mRNA: 100 fold
[1]; TNF-alpha
  protein/cytokine ratio vs natural G-CSF mRNA: 27 fold
